According to patent EP1889617A1, “Triphenyl modified 5-membered heterocycles and their use as anticancer and antiflammatory agents” (Freie Universität Berlin, priority 2006, dated 2008):

Assays:
[1] = system: MCF-7 cells; experiment: Cytotoxic effects, concentration dependent test (IC50), crystal violet staining; type: cell-based; conditions: Homo sapiens, MCF7; estrogen receptor positive MCF-7 cells; incubation of 72 h
Description: (§1) The cytotoxic assay in estrogen receptor positive MCF-7 cells has been described previously by Ruenitz, P.C. et al. (1997) J. Steroid Biochem. Mol. Biol. 63, 203-209). Fiation, staining and quantitation of the cells were carried out according to Gillies (Gillies, R.J. et al. (1986) Anal. Biochem. 159, 109-113) and Kueng (Kueng, W. et al. (1989) Anal. Biochem. 182, 16-19). Moreover the test was carried out with estrogen receptor negative MD-MB 231 cells. MCF-7 cells (MDA-MB 231 cells) from an almost confluent monolayer were harvest by trypsinization and suspended to approximately 7 x 10^3 cells/mL (1 x 10^3 cells/mL). At the beginning of the experiment, the cell suspension was transferred to 96-well microplates (100 µL/well). After cultivating them for 3 days at growing conditions the medium was removed and replaced by one containing the test compounds. Control wells (16/plate) were contained 0.1% of DMSO, which was used for the preparation of the stock solutions. The initial cell density was determined by addition of glutaric dialdehyde (1 % in PBS; 100 µL/well). After incubation for 3-7 days, the medium was removed, and glutaric dialdehyde (1 % in PBS; 100 µL/well) was added for fixation. After 15 min, the solution of the aldehyde was decanted and 180 µL PBS/well added. The plates were stored at 4°C until staining. Cells were stained by treating them for 25 min with 100 µL of an aqueous solution of crystal violet (0.02%). After decanting cells were washed several times with water to remove the adherent dye. After addition of 180 µL of ethanol (70%), plates were gently shaken for 4 h. Optical density of each well was measured in a microplate autoreader at 590 nm.
(§2) MCF-7 cells (MDA-MB 231 cells) from an almost confluent monolayer were harvested by trypsinization and suspended to approximately 10 × 10^3 cells/mL (5 x 10^3 cells/mL). After cultivating them for 3 days at growing conditions the medium was removed and replaced by one containing the test compounds (control wells 8/plate). After incubation of 72 h (48 h) the medium was removed and the test was continued as descried above.

[2] = system: MDA-MB 231 cells; experiment: as above; type: cell-based; conditions: Homo sapiens; estrogen receptor negative MDA-MB 231 cells; incubation of 48 h
Description: as §1, §2

[3] = molecular target: T1, estrogen receptor (Homo sapiens, UniProt P03372); experiment: Whole Cell Assay (WCA): competitive estrogen receptor binding against [3H]17β-estradiol; conditions: test compound 10^-6 M, 1 h incubation (37°C), percentage to a solvent treated control sample
T1 construct: endogenous in cells; host or cells: MCF-7
T1 sequence (P03372 1-595): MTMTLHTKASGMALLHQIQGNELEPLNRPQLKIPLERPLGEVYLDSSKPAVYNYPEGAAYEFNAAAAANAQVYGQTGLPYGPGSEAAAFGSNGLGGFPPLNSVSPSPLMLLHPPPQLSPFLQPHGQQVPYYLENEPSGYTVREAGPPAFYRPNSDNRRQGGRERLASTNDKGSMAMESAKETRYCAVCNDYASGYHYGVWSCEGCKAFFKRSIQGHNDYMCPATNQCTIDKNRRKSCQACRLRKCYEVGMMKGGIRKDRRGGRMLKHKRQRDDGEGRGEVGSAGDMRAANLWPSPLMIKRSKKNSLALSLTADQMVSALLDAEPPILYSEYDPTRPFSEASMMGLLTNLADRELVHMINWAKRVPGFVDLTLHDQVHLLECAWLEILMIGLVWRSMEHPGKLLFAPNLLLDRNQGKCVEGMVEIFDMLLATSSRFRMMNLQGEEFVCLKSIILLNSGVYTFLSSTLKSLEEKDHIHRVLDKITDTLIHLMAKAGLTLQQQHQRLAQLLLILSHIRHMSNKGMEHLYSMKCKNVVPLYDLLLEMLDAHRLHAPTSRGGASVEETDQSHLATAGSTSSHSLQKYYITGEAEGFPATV
Description: (§3) ER binding affinity is measured in competitive binding assays compared to estradiol. Binding affinity is expressed as a relative binding affinity (RBA) in percent compared to estradiol which is assigned an affinity of 100%. Substantial affinity for ER is indicated by an RBA of about 0,1% or more. Good affinity binding to ER is indicated by an RBA of about 1%- to about 10%. High affinity binding to ER is indicated by an RBA of about 10% or higher.
MCF-7 cells were plated in 24-well dishes (4 x 10^4 cells/well) and cultured for 48 h. After the incubation the medium was replaced by test compounds diluted in serum free medium containing [^3H]17β-Estradiol ([^3H]E2). Additional wells of each test compound concentration were filled with 500-fold excess of unlabeled E2 for nonspecific binding measurements. After 1 h incubation (37°C) the medium was removed and monolayer washed three times with an ice-cold saline solution. Bond E2 was then extracted from the monolayer with 1 mL ethanol at room temperature (20 min of incubation) and aliquots of 200 µL of ethanolic extracts were transferred to scintillation vials containing 3.8 mL scintillator Ecoscint H (National Diagnostic, Atlanta) for radioactivity counting. All measurements were performed in duplicate. Specific [^3H]E2 incorporation into the cells was calculated from the difference in incorporated radioactivity after incubation in the absence or presence of an excess of unlabeled E2. The results (relative radioactivity) were expressed as a percentage to a solvent treated control sample.

[4] = molecular target: T2, recombinant human estrogen receptor (hERα) (Homo sapiens, UniProt P03372); experiment: Recombinant ERα (HAP Assay): competitive binding against [3H]E2 on hydroxylapatite; conditions: hERα adsorbed on hydroxylapatite; test compound 10^-6 M; overnight at 4°C; percentage to a solvent treated control sample
T2 construct: purchased Calbiochem
T2 sequence (P03372 1-595): T1 sequence (P03372 1-595)
Description: as §3
An ethanolic solution (250 fmol/µL) of recombinant human estrogen receptor (hERα) (Calbiochem) was diluted with Tris-HCl buffer pH 8.0 (1:100). This hERα preparations adsorbed on hydroxylapatite pellets (prepared in 10 mmol/L Tris HCl buffer pH 8.0) which were labeled with increasing concentrations of the test compound (10^-10 - 10^-5 M) and [^3H]E2 (0.1 %) in presence or absence of 200-fold excess of unlabeled E2 and were incubated overnight at 4°C. Bond [^3H]E2 were then successively extracted with ethanol and aliquots of 200 µL of ethanolic extracts were transferred to scintillation vials containing 3.8 mL scintillator Ecoscint H (National Diagnostic, Atlanta) for radioactivity counting. The data interpretation was carried out as shown above.

SMILES	IC50 [1] [µM]	IC50 [2] [µM]	Relative radioactivity of labeled [^3H]E2; RBA-value MCF-7 cells (WCA); 10^-6 M [3] [%]	Relative radioactivity of labeled [^3H]E2; RBA-value HAP-Assay; 10^-6 M [4] [%]
COc1ccc(-c2cc(-c3ccc(OC)cc3Cl)[nH]c2-c2ccc(OC)cc2)cc1 [Example 2, 5-(2-Chloro-4-methoxyphenyl)-2,3-bis(4-methoxyphenyl)-1H-pyrrole]	9.5	10.3		
CCCc1c(-c2ccc(Cl)cc2O)[nH]c(-c2ccc(O)cc2)c1-c1ccc(O)cc1 [Example 12, 2-(4-Chloro-2-hydroxyphenyl)-4,5-bis(4-hydroxyphenyl)-3-propyl-1H-pyrrole]	8.1	6.5	78.1 ± 4.4	70.3 ± 6.1
COc1ccc(-c2cc(-c3ccc(OC)cc3)c(-c3ccc(OC)cc3Cl)[nH]2)cc1 [Example 1, 2-(2-Chloro-4-methoxyphenyl)-3,5-bis(4-methoxyphenyl)-1H-pyrrole]	17.7	27.4		
Cc1c(-c2ccc(O)cc2Cl)cc(-c2ccc(O)cc2)n1-c1ccc(O)cc1 [Example 18, 4-(2-Chloro-4-hydroxyphenyl)-1,2-bis(4-hydroxyphenyl)-5-methyl-1H-pyrrole]	23.4	17.4		
Oc1ccc(-c2cc(-c3ccc(O)cc3)c(-c3ccc(Cl)cc3O)[nH]2)cc1 [Example 10, 2-(4-Chloro-2-hydroxyphenyl)-3,5-bis(4-hydroxyphenyl)-1H-pyrrole]	9.2	18.8		
CCCc1c(-c2ccc(OC)cc2F)cc(-c2ccc(OC)cc2)n1-c1ccc(OC)cc1 [Example 17, 4-(2-Fluoro-4-methoxyphenyl)-1,2-bis(4-methoxyphenyl)-5-propyl-1H-pyrrole]	17.8	18.4		
Oc1ccc(-c2cc(-c3ccc(O)cc3Cl)[nH]c2-c2ccc(Cl)cc2O)cc1 [Example 11, 5-(2-Chloro-4-hydroxyphenyl)-2-(4-chloro-2-hydroxyphenyl)-3-(4-hydroxyphenyl)-1H-pyrrole]	10.5	14		
CC(C)Cc1c(-c2ccc(O)cc2Cl)cc(-c2ccc(O)cc2)n1-c1ccc(O)cc1 [Example 21, 4-(2-Chloro-4-hydroxyphenyl)-5-isobutyl-1,2-bis(4-hydroxyphenyl)-1H-pyrrole]	15.2	16.1		
COc1ccc(-c2cc(-c3ccc(OC)cc3Cl)c(CC(C)C)n2-c2ccc(OC)cc2)cc1 [Example 16, 4-(2-Chloro-4-methoxyphenyl)-5-isobutyl-1,2-bis(4-methoxyphenyl)-1H-pyrrole]	18	15.2		
Oc1ccc(-c2cc(-c3ccc(O)cc3)c(-c3ccc(O)cc3Cl)[nH]2)cc1 [Example 7, 2-(2-Chloro-4-hydroxyphenyl)-3,5-bis(4-hydroxyphenyl)-1H-pyrrole]	16.4	13.5	35.3 ± 4.9	26.4 ± 8.3
Oc1ccc(-c2cc(-c3ccc(O)cc3Cl)[nH]c2-c2ccc(O)cc2Cl)cc1 [Example 9, 2,5-Bis(2-chloro-4-hydroxyphenyl)-3-(4-hydroxyphenyl)-1H-pyrrole]	7.6	13.4	13.1 ± 3.2	19.1 ± 1.5
CCc1c(-c2ccc(O)cc2Cl)cc(-c2ccc(O)cc2)n1-c1ccc(O)cc1 [Example 19, 4-(2-Chloro-4-hydroxyphenyl)-5-ethyl-1,2-bis(4-hydroxyphenyl)-1H-pyrrole]	17.8	18.4	41.2 ± 8.3	30.1 ± 5.1
COc1ccc(-c2cc(-c3ccc(OC)cc3Cl)c(C)n2-c2ccc(OC)cc2)cc1 [Example 13, 4-(2-Chloro-4-methoxyphenyl)-1,2-bis(4-methoxyphenyl)-5-methyl-1H-pyrrole]	23.6	20.3		
CCCc1c(-c2ccc(O)cc2Cl)cc(-c2ccc(O)cc2)n1-c1ccc(O)cc1 [Example 20, 4-(2-Chloro-4-hydroxyphenyl)-1,2-bis(4-hydroxyphenyl)-5-propyl-1H-pyrrole]	19.5	16.2		
